Measured values taken from patent US5310938A, “Substituted arylpyrrole compounds” (American Cyanamid Company, priority 1993, dated 1994).

Key:
Caenorhabditis elegans = assay: Nematicidal activity against C. elegans (motility rating); assay type: in vivo, C. elegans (Bristol strain); parameters: key: 9: complete kill; 8: no motility; 7: markedly reduced motility in approximately 95% of worms; 6: reduced motility; 5: slightly reduced motility; 0: normal motility, same as controls; conditions: read at 4 and 24 hours post-immersion
Experimental: Cultures of C. elegans (Bristol strain from J. Lewis) are maintained on E. coli lawns on NG Agar Plates at 20° C. New cultures are established weekly.
Nematodes for testing are washed from 4-5 day old cultures using Fresh Ascaris Ringers Solution (FARS). The worms are further washed with FARS,-containing gentamycin, to reduce bacterial contamination and centrifuged to separate worms from wash solution. This procedure is repeated three times. The washed worms are then added to C. brigassae Maintenance Medium (CbMM), from GIBCOa to which is added gentamycin (600 units/ml) and mycostatin (0.5 mg/ml).
Compounds are dissolved in acetone and made up to volume with equal parts of water. The final test concentration of each compound in the mixture is 150 ppm. The test material is micropipetted (25 ul) into a single well of a 96-well sterile tissue culture plate (COSTAR)^b and the solvent allowed to evaporate. These "treated" plates are used immediately or stored in a refrigerator without apparent adverse effects on the compounds.
A freshly prepared volume ([…]) of C. elegans in CbMM is micropipetted into each treated well and several control wells per plate. Culture plates are incubated at 20° C.
Observations for efficacy are made under a dissecting microscope at 4 and 24 hours post-immersion. Immediately prior to reading the plate, it is gently tapped to stimulate the movement of the worms. Activity is judged based on the drug effects on motility of the adults and larvae. […] Other factors indicating activity are easily noted such as death, rigor mortis, contraction, coiling, paralysis, abnormal twitching, reduced worm population in 48 hours and other deviation from normal behavior.
Day 0 Inoculate E. Coli-NG Agar Dish With 30-40
Day 4 Harvest New C. Elegans Population
Add C. Elegans (25-100 µL) To "Medicated"
Observe for Activity at 4 hours Post-
Day 5 Observe For Activity

Psoroptes cuniculi = assay: Filter paper contact test against Psoroptes cuniculi (Rabbit Ear Mite); assay type: in vivo; conditions: Psoroptes ovis, 24 hour; for mortality at 4 µg/cm2, 4 µg/cm2: 4.0 μg/cm^2, read-out: 24 hour % Mortality; for mortality at 10 µg/cm2, 10 µg/cm2: 10.0 μg/cm^2
Experimental: On the day prior to the test initiation the drugs to be evaluated are dissolved in acetone and diluted to the desired concentrations. The concentration is calculated so that 400 μl contains the amount of test compound to be placed on each filter paper. 400 μl of this solution is pipetted onto a top (3.7 cm dia.) and bottom (3.5 cm dia.) filter paper disks which are then placed on a ceramic plate to dry. There is a rough and smooth side to the filter paper. Drug should be applied to the rough side which is placed up while drying. When dry the two disks are placed in a Petri dish with the rough sides facing in, separated by one 3 mm glass bead. Dishes are held at room temperature overnight if done the day before the test.
Scab (containing mites) is collected from the ears of infested rabbits the morning of the test. This material is placed in a large Petri dish under an illuminated magnifier. Mites crawl out of the scab and are easily collected on the point of a dissecting needle or one prong of a pair of fine forceps. The top filter paper in each dish is removed and 12 mites are placed on the bottom disk and the top paper replaced. Before replacing the top of the Petri dish the rim of the dish is smeared with Vaseline to trap any escaping mites.
For evaluation tests there are generally 4 replicates of each dose which are counted at 24 hours. After mites are added to the dishes, the dishes in each replicate are placed in a tray which is then placed in a plastic bag with several wet towels and held at room temperature.
After 24 hours dishes are examined under a dissecting scope. Each dish is opened carefully and the top filter paper removed and saved. A 1/2 cm circle is drawn on the bottom filter paper and the paper gently wet in the area of the circle. All mites from the dish are transferred into the wet circle area and counted. The top cover is replaced on each dish and the dishes set aside for at least 15 minutes. After standing the dishes are examined and the mites remaining on the circle counted. These mites are dead. Percent mortality of the mites is then calculated for each treatment.

Housefly Larvae = assay: Inhibition of pupation of newly emerged housefly larvae; assay type: in vivo; conditions: Musca domestica, 168 h; 10.0 ppm; one week, 27° C.; corrected by Abbott's formula
Experimental: In this test system newly emerged housefly larvae are grown on an undefined medium of fermented whole milk and dried beef blood. Compounds are added to the milk and activity is determined by the failure of larvae to pupate.
The test is run in 1 oz. plastic medicine cups. Paper toweling is cut in pieces approximately 3.5×10 cm. Three of these pieces are folded accordion style and placed in each paper cup. A piece of masking tape is placed on the outside of the cup to facilitate numbering. Cups should be prepared prior to the day the test is to begin.
Newly hatched housefly larvae are obtained on the morning the test is to begin. The eggs are laid the night before and larvae usually begin to hatch by 9-10 AM the following morning.
Twenty-four hours before the initiation of the test, one half gallon of whole milk is divided into 5 1-liter beakers and placed in an incubator at 39° C.
The morning of the test, one 250 ml beaker is labeled for each treatment. The fermented milk is removed from the incubator, stirred and poured into each of the small beakers. The beakers are then returned to the incubator and 1-2 g of dried beef blood added to each beaker to distribute blood which will not dissolve. The beakers are again returned to the incubator.
Doses of compounds are calculated so that 0.1 ml contains the amount of compound to be added to 100 ml of milk. Compounds should be dissolved in acetone. 100 μl of acetone is added to each control beaker.
Each beaker is removed from incubator and placed on a magnetic stirrer. The compound is added and thoroughly mixed. Then 20 ml portions are removed and added to labelled test cups (4 reps/treatment). Cups are placed in stainless steel tray until all are prepared. […] The tray containing the cups are then placed in a plastic bag and maintained at room temperature.
The media that the fly eggs are laid in is spread out in a green or black pan so that larvae can be observed. Working under an illuminated magnifier 20 larvae are transferred into each cup using a fine paint brush. Each cup is then sealed in a Zip-Loc sandwich bag with a few pinholes in it.
Bags containing cups are placed on a flat tray and placed in a 27° C. incubator for one week. The majority of the larvae will have pupated at this point.
Trays are then removed from the incubator and the number of pupae in each bag recorded. The paper toweling is removed and examined closely for any pupae that have remained in the cups. Most of the pupae will be loose in the bag. A note is also made of any dead or live developed larvae. If there are larvae that appear capable of pupating, the bag may be returned to the incubator for a day to see if they will pupate.
The percent development of pupae is then calculated. The final results are expressed as a percent inhibition of pupation and are corrected for control mortality by using Abbott's formula.

Dermacentor variabilis = assay: Filter paper contact test against larval stages of the Dogtick; assay type: in vivo; conditions: 10.0 μg/cm^2, 48 hour
Experimental: The test procedure used herein is the same procedure described in Example 2, for evaluating the arylpyrroles for control of Psoroptes cuniculi the Rabbit Ear Mite, with the following exceptions:
(1) Unfed larval ticks are obtained from egg masses laid by gravid female ticks removed from dogs and each replicate receives ticks from the same egg mass;
(2) Ticks survive longer than mites in the Petri dishes, thus readings are made 48 hours or longer after the test is initiated; and
(3) When reading the test it may be necessary to blow on the ticks to stimulate their movement.

| Structure (SMILES) | Rating Against C. Elegans 150 ppm (Caenorhabditis elegans) | mortality at 4 µg/cm2, 4 µg/cm2 (Psoroptes cuniculi) [%] | further results |
| --- | --- | --- | --- |
| N#CCn1c(Cl)c(Cl)c(C#N)c1-c1ccc(C(F)(F)F)cc1 [2,3-Dichloro-4-cyano-5-(α,α,α-trifluoro-P-tolyl)-pyrrole-1-acetonitrile] | 9 | 77 | inhibition at 10 ppm (Housefly Larvae): 100% |
| O=[N+]([O-])c1c(-c2ccc(Cl)cc2)[nH]c(Cl)c1Cl [2,3-Dichloro-5-(P-chlorophenyl)-4-nitropyrrole] | 9 | 52 | mortality at 10 µg/cm2, 10 µg/cm2 (Psoroptes cuniculi): 91%; mortality at 10 µg/cm2, 10 µg/cm2 (Dermacentor variabilis): 58% |
| N#Cc1c(Br)[nH]c(-c2ccc(Cl)cc2)c1Br [2,4-dibromo-5-(p-chlorophenyl)pyrrole-3-carbonitrile] | – | 11 | – |
| N#Cc1cc[nH]c1-c1cc(F)c(Cl)cc1Cl [2-(2,4-Dichloro-5-fluorophenyl)pyrrole-3-carbonitrile] | – | 73 | – |
| CCOCn1c(C(F)(F)F)cc([N+](=O)[O-])c1-c1ccc(Cl)c(Cl)c1 [2-(3,4-Dichlorophenyl)-1-(ethoxymethyl)-3-nitro-5-(trifluoromethyl)pyrrole] | – | 92 | – |
| CCOCn1c(Cl)c(Cl)c(C#N)c1-c1ccc(OC(F)(F)F)cc1 [4,5-Dichloro-1-(ethoxymethyl)-2-[P-(trifluoromethoxy)phenyl]pyrrole-3-carbonitrile] | – | 100 | – |
| Cn1c(Cl)c(Cl)c(C#N)c1-c1ccc(OC(F)(F)F)cc1 [4,5-Dichloro-1-methyl-2-[P-(trifluoromethoxy)phenyl]-pyrrole-3-carbonitrile] | – | – | mortality at 10 µg/cm2, 10 µg/cm2 (Dermacentor variabilis): 55% |
| N#Cc1c(-c2ccc(Cl)c(Cl)c2)[nH]c(Cl)c1Cl [4,5-dichloro-2-(3,4-dichlorophenyl)pyrrole-3-carbonitrile] | – | – | mortality at 10 µg/cm2, 10 µg/cm2 (Psoroptes cuniculi): 33%; mortality at 10 µg/cm2, 10 µg/cm2 (Dermacentor variabilis): 40% |
| N#Cc1c(-c2ccc(Cl)cc2Cl)[nH]c(C(F)(F)F)c1Br [4-Bromo-2-(2,4-dichlorophenyl)-5-(trifluoromethyl)pyrrole-3-carbonitrile] | 9 | – | – |
| N#Cc1c(-c2ccc(Cl)c(Cl)c2)[nH]c(C(F)(F)F)c1Br [4-Bromo-2-(3,4-dichlorophenyl)-5-(trifluoromethyl)pyrrole-3-carbonitrile] | 9 | – | – |
| N#Cc1c(-c2ccc(Cl)c(Cl)c2)[nH]c([N+](=O)[O-])c1Br [4-Bromo-2-(3,4-dichlorophenyl-5-nitropyrrole-3-carbonitrile] | 9 | – | – |
| CCOCn1c(-c2ccc(Br)cc2)c(C#N)c(Br)c1C(F)(F)F [4-Bromo-2-(P-bromophenyl)-1-(ethoxymethyl)-5-(trifluoromethyl)pyrrole-3-carbonitrile] | – | 31 | – |
| COCn1c(-c2ccc(Cl)cc2)c(C#N)c(Br)c1C(F)(F)F [4-Bromo-2-(P-chlorophenyl)-1-(1-methoxymethyl)-5-(trifluoromethyl)pyrrole-3-carbonitrile] | 9 | – | – |
| N#Cc1c(-c2cccc([N+](=O)[O-])c2)[nH]c(C(F)(F)F)c1Br [4-Bromo-2-(m-nitrophenyl)-5-(trifluoromethyl)pyrrole-3-carbonitrile] | 9 | – | – |
| N#Cc1c(-c2ccc(Cl)cc2)[nH]c(C(F)(F)F)c1Br [4-Bromo-2-(p-chlorophenyl)-5-(trifluoromethyl)pyrrole-3-carbonitrile] | 9 | – | – |
| N#Cc1c(-c2ccc(C(F)(F)F)cc2)[nH]c([N+](=O)[O-])c1Br [4-Bromo-5-nitro-2-(α,α,α-trifluoro-P-tolyl)pyrrole-3-carbonitrile] | 9 | – | – |
| N#Cc1c[nH]c(C(F)(F)F)c1-c1ccccc1 [4-Phenyl-5-(trifluoromethyl)pyrrole-3-carbonitrile] | 9 | – | – |
| N#Cc1cc([N+](=O)[O-])c(-c2ccc(Cl)c(Cl)c2)[nH]1 [5(3,4-Dichlorophenyl)-4-nitropyrrole-2-carbonitrile] | 9 | – | – |
| N#Cc1cc(C#N)c(-c2ccc(Cl)c(Cl)c2)[nH]1 [5-(3,4-Dichlorophenyl)-pyrrole-3-dicarbonitrile] | 9 | – | – |
| N#Cc1c[nH]c(-c2ccc(C(F)(F)F)cc2)c1 [5-(α,α,α-trifluoro-tolyl)-pyrrole-3-carbonitrile] | 9 | – | – |
| N#Cc1[nH]c(Br)c(C#N)c1-c1ccc(Cl)cc1 [5-Bromo-3-(P-chlorophenyl)-pyrrole-2,4-dicarbonitrile] | 9 | – | – |
